The values below come from US9873709B2 (priority 2013, dated 2018).

This experiment deals with JAK1-dependent STAT6 phosphorylation downstream of IL-13 stimulation in TF-1 human erythroleukemia cells. Kind of experiment: cells. As to conditions: TF-1, read-out: IL-13-pSTAT6 IC50.
Procedure: Inhibitor potency (EC50) was determined in cell-based assays designed to measure JAK1 dependent STAT phosphorylation.
Prior to use in the assays, TF-1 cells were starved of GM-CSF overnight in OptiMEM medium (Life Technologies, Grand Island, N.Y.) supplemented with 0.5% charcoal/dextran stripped fetal bovine serum (FBS), 0.1 mM non-essential amino acids (NEAA), and 1 mM sodium pyruvate. The assays were run in 384-well plates in serum-free OptiMEM medium using 300,000 cells per well. In a second assay approach, BEAS-2B human bronchial epithelial cells obtained from ATCC were plated at 100,000 cells per well of a 96-well plate one day prior to the experiment. The BEAS-2B assay was run in complete growth medium (bronchial epithelial basal medium plus bulletkit; Lonza; Basel, Switzerland).
Test compounds were serially diluted 1:2 in DMSO and then diluted 1:50 in medium just before use. Diluted compounds were added to the cells, for a final DMSO concentration of 0.2%, and incubated for 30 min (for the TF-1 assay) or 1 hr (for the BEAS-2B assay) at 37° C. Then, cells were stimulated with human recombinant cytokine at their respective EC90 concentrations, as previously determined for each individual lot. […] The resultant samples were frozen in the plates at −80° C. Compound mediated inhibition of STAT6 phosphorylation was measured in the cell lysates using MesoScale Discovery (MSD) technology (Gaithersburg, Md.).
With `CCOC(=O)N1CC=C(c2cccn3nc(Nc4ccc(C(=O)N5CCCC5c5ccncc5)cc4)nc23)CC1` (centres unmarked) [Example 2-15, ethyl 4-[2-[4-[2-(4-pyridyl)pyrrolidine-1-carbonyl]anilino]-[1,2,4]triazolo[1,5-a]pyridin-8-yl]-3,6-dihydro-2H-pyridine-1-carboxylate], the half-maximal inhibitory concentration (IC50) came out at 17.1 nM.

On to `CCOC(=O)N1CC=C(c2cccn3nc(Nc4ccc(C(=O)N5CCN(c6cccnc6)CC5)cc4)nc23)CC1` [Example 2-19, ethyl 4-[2-[4-[4-(3-pyridyl)piperazine-1-carbonyl]anilino]-[1,2,4]triazolo[1,5-a]pyridin-8-yl]-3,6-dihydro-2H-pyridine-1-carboxylate], for which the IC50 came out at 55.7 nM.

With `CCOC(=O)N1CC=C(c2cccn3nc(Nc4ccc(C(=O)N5CCN(C)CC(CO)C5)cc4)nc23)CC1` (centres unmarked) [Example 2-20, ethyl 4-[2-[4-[6-(hydroxymethyl)-4-methyl-1,4-diazepane-1-carbonyl]anilino]-[1,2,4]triazolo[1,5-a]pyridin-8-yl]-3,6-dihydro-2H-pyridine-1-carboxylate], the IC50 turned out to be 256 nM.

Consider `CCOC(=O)N1CC=C(c2cccn3nc(Nc4ccc(C(=O)N5CCNCC5C)cc4)nc23)CC1` (centres unmarked) [Example 2-24, ethyl 4-[2-[4-(2-methylpiperazine-1-carbonyl)anilino]-[1,2,4]triazolo[1,5-a]pyridin-8-yl]-3,6-dihydro-2H-pyridine-1-carboxylate], for which the IC50 worked out at 21.6 nM.

As for `CCOC(=O)N1CC=C(c2cccn3nc(Nc4ccc(C(=O)NC5CC6(CCNCC6)C5)cc4)nc23)CC1` [Example 2-27, ethyl 4-[2-[4-(7-azaspiro[3.5]nonan-2-ylcarbamoyl)anilino]-[1,2,4]triazolo[1,5-a]pyridin-8-yl]-3,6-dihydro-2H-pyridine-1-carboxylate], the 50% inhibitory concentration (IC50) came to 257 nM.

Regarding `O=C(CCC(F)(F)F)N1CC=C(c2cccn3nc(Nc4ccc(C(=O)N5CCC6(CCNC6)C5)cc4)nc23)CC1` (centres unmarked) [Example 2-28, 1-[4-[2-[4-(2,7-diazaspiro[4.4]nonane-2-carbonyl)anilino]-[1,2,4]triazolo[1,5-a]pyridin-8-yl]-3,6-dihydro-2H-pyridin-1-yl]-4,4,4-trifluoro-butan-1-one], the IC50 came out at 207 nM.

On to `O=C(CCC(F)(F)F)N1CC=C(c2cccn3nc(Nc4ccc(C(=O)N5CCC6(CCNCC6)CC5)cc4)nc23)CC1` [Example 2-29, 1-[4-[2-[4-(3,9-diazaspiro[5.5]undecane-3-carbonyl)anilino]-[1,2,4]triazolo[1,5-a]pyridin-8-yl]-3,6-dihydro-2H-pyridin-1-yl]-4,4,4-trifluoro-butan-1-one], for which the IC50 turned out to be 80.3 nM.

In the case of `O=C(NCC1CNCCO1)c1ccc(Nc2nc3c(C4=CCN(C(=O)CCC(F)(F)F)CC4)cccn3n2)cc1` (centres unmarked) [Example 2-30, N-(morpholin-2-ylmethyl)-4-[[8-[1-(4,4,4-trifluorobutanoyl)-3,6-dihydro-2H-pyridin-4-yl]-[1,2,4]triazolo[1,5-a]pyridin-2-yl]amino]benzamide], the half-inhibitory concentration (IC50) stood at 40.3 nM.

`CNCCNC(=O)c1ccc(Nc2nc3c(C4=CCN(C(=O)CCC(F)(F)F)CC4)cccn3n2)cc1` [Example 2-31, N-[2-(methylamino)ethyl]-4-[[8-[1-(4,4,4-trifluorobutanoyl)-3,6-dihydro-2H-pyridin-4-yl]-[1,2,4]triazolo[1,5-a]pyridin-2-yl]amino]benzamide]: the half-maximal inhibitory concentration (IC50) turned out to be 181 nM.

In the case of `O=C(NCCN1CCNCC1)c1ccc(Nc2nc3c(C4=CCN(C(=O)CCC(F)(F)F)CC4)cccn3n2)cc1` [Example 2-32, N-(2-piperazin-1-ylethyl)-4-[[8-[1-(4,4,4-trifluorobutanoyl)-3,6-dihydro-2H-pyridin-4-yl]-[1,2,4]triazolo[1,5-a]pyridin-2-yl]amino]benzamide], the IC50 was 536 nM.

Regarding `O=C(CCC(F)(F)F)N1CC=C(c2cccn3nc(Nc4ccc(C(=O)N5CCNCC5CO)cc4)nc23)CC1` (centres unmarked) [Example 2-33, 4,4,4-trifluoro-1-[4-[2-[4-[2-(hydroxymethyl)piperazine-1-carbonyl]anilino]-[1,2,4]triazolo[1,5-a]pyridin-8-yl]-3,6-dihydro-2H-pyridin-1-yl]butan-1-one], the IC50 was found to be 23.3 nM.

Usually IC50 stands for the concentration at which inhibition is half-maximal.
